Assays:
hERG = hERG (Homo sapiens, UniProt Q12809); assay: Effects on hERG current (whole-cell clamping); conditions: human, HEK 293 cells that express hERG, pH 7.4, hERG inhibition rate (%) (1 μM), 1 μM; tail peak current; hERG-expressed HEK 293 cells
[1] = system: IL-17 production of mouse spleen cells stimulated by rm-IL-23; assay: Production of IL-17 induced when mouse spleen cells were stimulated by recombinant mouse interleukin-23 (rm-IL-23); format: cell-based; conditions: Mus musculus, 72 h, inhibition of IL-17 production, DBA/1J mouse spleen cells, rm-IL-23 1 nmol/L, ELISA
Outline: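 Spleen cells from 6-7 week-old male DBA/1J mice, 2×10^5 cells/well in 10% FCS RPMI1640, cultured 72 h at 37° C with compound (1 to 1,000 nmol/L) plus 1 nmol/L rm-IL-23. IL-17 in supernatant by ELISA; viability by WST-8 absorbance at 450 nm; IC50 by linear regression of inhibition rate.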

Chain of hERG (Q12809 whole entry): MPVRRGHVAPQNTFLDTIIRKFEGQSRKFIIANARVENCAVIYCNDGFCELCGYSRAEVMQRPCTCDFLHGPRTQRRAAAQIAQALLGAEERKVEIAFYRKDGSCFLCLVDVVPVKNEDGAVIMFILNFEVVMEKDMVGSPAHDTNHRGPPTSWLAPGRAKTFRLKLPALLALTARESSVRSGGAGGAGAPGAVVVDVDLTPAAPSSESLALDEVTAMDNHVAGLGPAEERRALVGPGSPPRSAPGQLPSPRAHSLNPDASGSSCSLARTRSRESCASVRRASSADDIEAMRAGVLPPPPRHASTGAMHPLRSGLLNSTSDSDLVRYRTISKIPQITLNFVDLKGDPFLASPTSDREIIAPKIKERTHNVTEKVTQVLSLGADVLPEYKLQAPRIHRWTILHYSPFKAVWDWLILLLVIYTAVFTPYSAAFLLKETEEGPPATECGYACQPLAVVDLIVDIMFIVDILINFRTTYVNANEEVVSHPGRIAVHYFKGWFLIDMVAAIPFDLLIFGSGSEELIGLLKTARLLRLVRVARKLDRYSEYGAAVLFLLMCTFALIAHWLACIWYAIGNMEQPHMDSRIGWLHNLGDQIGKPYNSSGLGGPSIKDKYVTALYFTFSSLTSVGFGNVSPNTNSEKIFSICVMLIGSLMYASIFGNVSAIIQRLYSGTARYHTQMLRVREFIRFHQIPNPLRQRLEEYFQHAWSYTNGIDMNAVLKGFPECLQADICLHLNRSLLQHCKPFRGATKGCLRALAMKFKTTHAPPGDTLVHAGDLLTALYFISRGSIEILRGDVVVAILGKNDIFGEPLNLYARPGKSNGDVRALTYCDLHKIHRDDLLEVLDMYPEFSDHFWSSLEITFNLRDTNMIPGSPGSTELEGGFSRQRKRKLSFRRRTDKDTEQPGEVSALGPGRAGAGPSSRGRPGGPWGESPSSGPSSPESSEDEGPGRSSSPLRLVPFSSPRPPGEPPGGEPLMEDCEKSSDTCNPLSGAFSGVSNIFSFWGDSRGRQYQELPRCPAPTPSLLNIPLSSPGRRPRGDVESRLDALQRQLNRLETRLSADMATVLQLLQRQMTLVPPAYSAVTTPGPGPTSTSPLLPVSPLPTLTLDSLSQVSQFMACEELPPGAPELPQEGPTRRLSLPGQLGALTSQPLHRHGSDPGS

Row | SMILES | IC50 [1] | inhibition at 1 µM (hERG)
1 | Cc1c(C(=O)Nc2ccc(C3CCC(O)CC3)nc2)cnn1-c1ccc(Cl)cc1 (stereo not drawn) [Example G9] | 145 nM | 0.8%
2 | Cc1c(C(=O)Nc2ccc(C3CCC(O)CC3)nc2)cnn1-c1ccc(C(F)(F)F)cc1 (stereo not drawn) [Example G10] | 118 nM | 5.1%
3 | Cc1c(C(=O)Nc2ccc([C@]3(C#N)CC[C@@H](O)CC3)nc2)cnn1-c1ccc(OC(F)(F)F)cc1 [Example G11] | 84.6 nM | 12.2%
4 | Cc1c(C(=O)Nc2ccc([C@]3(C#N)CC[C@@H](O)CC3)nc2)cnn1-c1ccc(F)c(F)c1 [Example G12] | 260 nM | 6.5%
5 | Cc1cc(NC(=O)c2cnn(-c3ncc(C(F)(F)F)cc3F)c2C)cnc1[C@H]1CC[C@H](O)CC1 [Example G29, trans-1-[3-Fluoro-5-(trifluoromethyl)pyridin-2-yl]-N-[6-(1-hydroxycyclohexan-4-yl)-5-methylpyridin-3-yl]-5-methyl-1H-pyrazole-4-carboxamide] | 133 nM | 6.7%
6 | COc1cc(C(F)(F)F)cnc1-n1ncc(C(=O)Nc2cnc([C@H]3CC[C@H](O)CC3)c(C)c2)c1C [Example G30] | 147 nM | 3.2%
7 | Cc1cc(NC(=O)c2cnn(-c3ncc(C(F)(F)F)cc3Cl)c2C)cnc1[C@H]1CC[C@H](O)CC1 [Example G32, trans-1-[3-Chloro-5-(trifluoromethyl)pyridin-2-yl]-N-[6-(1-hydroxycyclohexan-4-yl)-5-methylpyridin-3-yl]-5-methyl-1H-pyrazole-4-carboxamide] | 105 nM | 7.9%
8 | Cc1cc(NC(=O)c2cnn(-c3ccc(C(F)(F)F)cn3)c2C)cnc1[C@H]1CC[C@H](O)CC1 [Example J7, trans-N-[6-(4-Hydroxycyclohexyl)-5-methylpyridin-3-yl]-5-methyl-1-[5-(trifluoromethyl)-pyridin-2-yl]-1H-pyrazole-4-carboxamide] | 67.5 nM | 7.9%
9 | Cc1c(C(=O)Nc2ccc([C@H]3CC[C@H](O)CC3)nc2)cnn1-c1ccc(OCCOC(C)(C)C)cc1 [Example J8] | 53 nM | 11.3%
10 | Cc1cc(NC(=O)c2cnn(-c3ccc(C4CC4)cn3)c2C)cnc1[C@H]1CC[C@H](O)CC1 [Example J12] | 149 nM | 10.8%
11 | Cc1c(C(=O)Nc2ccc([C@]3(C#N)CC[C@@H](O)CC3)nc2)cnn1-c1ccc(C2CC2)cn1 [Example J13] | 242 nM | 10.7%
12 | Cc1c(C(=O)Nc2ccc([C@]3(C#N)CC[C@@H](O)CC3)nc2)cnn1-c1ncc(C(F)(F)F)cc1Cl [Example J15] | 438 nM | 8.2%
13 | Cc1c(C(=O)Nc2ccc([C@]3(C#N)CC[C@@H](O)CC3)nc2)cnn1-c1ncc(C(F)(F)F)cc1F [Example J16] | 305 nM | 13.5%
14 | Cc1c(C(=O)Nc2ccc([C@]3(C#N)CC[C@@H](O)CC3)nc2)cnn1-c1ncc(C2CC2)cc1F [Example J17] | 275 nM | 2.4%
15 | Cc1c(C(=O)Nc2ccc([C@]3(C#N)CC[C@@H](O)CC3)nc2)cnn1-c1ccc(C(C)C)cc1 [Example J18] | 137 nM | 17.8%
16 | Cc1c(C(=O)Nc2ccc([C@]3(C#N)CC[C@@H](O)CC3)nc2)cnn1-c1ccc(C2CC2)cc1 [Example J19] | 132 nM | 18.5%
17 | CCc1ccc(-n2ncc(C(=O)Nc3ccc([C@]4(C#N)CC[C@@H](O)CC4)nc3)c2C)cc1 [Example J20] | 90 nM | 18.1%
18 | Cc1c(C(=O)Nc2ccc(C3(C(=O)O)CCCCC3)nc2)cnn1-c1ccc(Cl)cc1 [Example K4, 1-[5-({[1-(4-Chlorophenyl)-5-methyl-1H-pyrazol-4-yl]carbonyl}amino)pyridin-2-yl]-cyclohexanecarboxylic acid] | 127 nM | 17.2%
19 | Cc1c(C(=O)Nc2ccc(C3(C#N)CCC(O)CC3)nc2)cnn1-c1ccc(C(F)(F)F)cn1 (stereo not drawn) [Example K6, N-[6-(r-1-Cyano-c-4-hydroxycyclohexyl)pyridin-3-yl]-5-methyl-1-[5-(trifluoromethyl)pyridin-2-yl]-1H-pyrazole-4-carboxamide] | 148 nM | 40%
20 | Cc1ccc(-n2ncc(C(=O)Nc3ccc([C@]4(C#N)CC[C@@H](OCCO)CC4)nc3)c2C)cc1 [Example K19, N-{6-[r-1-cyano-c-4-(2-hydroxyethoxy)cyclohexyl]pyridin-3-yl}-5-methyl-1-(4-methylphenyl)-1H-pyrazole-4-carboxamide] | 148 nM | 2.4%
21 | CNC1CC=C(c2ncc(NC(=O)c3cnn(-c4ccc(C(F)(F)F)cn4)c3C)cc2C)CC1 (stereo not drawn) [Example K26, 5-Methyl-N-[5-methyl-6-(4-methylaminocyclohex-1-en-1-yl)pyridin-3-yl]-1-[5-(trifluoromethyl)pyridin-2-yl]-1H-pyrazole-4-carboxamide] | 376 nM | 14.3%
22 | CC(=O)N(C)C1CC=C(c2ncc(NC(=O)c3cnn(-c4ccc(C(F)(F)F)cn4)c3C)cc2C)CC1 (stereo not drawn) [Example K27, N-{6-[4-(N-Acetyl-N-methylamino)cyclohex-1-en-1-yl]-5-methylpyridin-3-yl}-5-methyl-1-[5-(trifluoromethyl)pyridin-2-yl]-1H-pyrazole-4-carboxamide] | 242 nM | 9.7%

Continued, in another order:

Row | IC50 [1] | SMILES | inhibition at 1 µM (hERG)
23 | 8.11 nM | Cc1cc(NC(=O)c2cnn(-c3ccc(C(F)(F)F)cn3)c2C)cnc1C1=CCC(N(C)C(=O)C(C)(C)C)CC1 (stereo not drawn) [Example K28, N-(6-{4-[N-(2,2-Dimethylpropion-1-yl)-N-methylamino]cyclohex-1-en-1-yl}-5-methylpyridin-3-yl)-5-methyl-1-[5-(trifluoromethyl)pyridin-2-yl]-1H-pyrazole-4-carboxamide] | 5.1%
24 | 368 nM | Cc1cc(NC(=O)c2cnn(-c3ccc(C(F)(F)F)cn3)c2C)cnc1C1=CCC(N(C)CCC(C)(C)C)CC1 (stereo not drawn) [Example K30, N-(6-[4-[N-(3,3-Dimethylbutyl)-N-methylamino]cyclohex-1-en-1-yl]-5-methylpyridin-3-yl)-5-methyl-1-[5-(trifluoromethyl)pyridin-2-yl]-1H-pyrazole-4-carboxamide] | 79.6%
25 | 4.27 nM | Cc1cc(NC(=O)c2cnn(-c3ccc(C(F)(F)F)cn3)c2C)cnc1C1=CCC(C(C)(C)O)CC1 (stereo not drawn) [Example K31, N-{6-[4-(1-Hydroxy-1-methylethyl)cyclohex-1-en-1-yl]-5-methylpyridin-3-yl}-5-methyl-1-[5-(trifluoromethyl)pyridin-2-yl]-1H-pyrazole-4-carboxamide] | 15.8%
26 | 6.32 nM | Cc1c(C(=O)Nc2ccc(C3=CCC(C(C)(C)O)CC3)nc2)cnn1-c1ccc(C(F)(F)F)cn1 (stereo not drawn) [Example K32, N-{6-[4-(1-Hydroxyl-methylethyl)cyclohex-1-en-1-yl]pyridin-3-yl}-5-methyl-1-[5-(trifluoromethyl)pyridin-2-yl]-1H-pyrazole-4-carboxamide] | 11.3%
27 | 206 nM | CC[C@]1(O)CC[C@](C#N)(c2ccc(NC(=O)c3cnn(-c4ccc(F)cc4)c3C)cn2)CC1 [Example K33, N-[6-(r-1-Cyano-4-ethyl-c-4-hydroxycyclohexan-1-yl)pyridin-3-yl]-1-(4-fluorophenyl)-5-methyl-1H-pyrazole-4-carboxamide] | 8%
28 | 154 nM | CC[C@]1(O)CC[C@@](C#N)(c2ccc(NC(=O)c3cnn(-c4ccc(C)cc4)c3C)cn2)CC1 [Example K34, N-[6-(r-1-Cyano-4-ethyl-t-4-hydroxycyclohexan-1-yl)pyridin-3-yl]-5-methyl-1-(4-methylphenyl)-1H-pyrazole-4-carboxamide] | 0.5%
29 | 124 nM | CC[C@]1(O)CC[C@](C#N)(c2ccc(NC(=O)c3cnn(-c4ccc(C)cc4)c3C)cn2)CC1 [Example K36, N-[6-(r-1-Cyano-4-ethyl-c-4-hydroxycyclohexan-1-yl)pyridin-3-yl]-5-methyl-1-(4-methylphenyl)-1H-pyrazole-4-carboxamide] | 8.1%
30 | 58.1 nM | Cc1c(C(=O)Nc2cnc(C3=CCC(N4CCOCC4)CC3)c(C#N)c2)cnn1-c1ccc(C(F)(F)F)cn1 (stereo not drawn) [Example K38, N-{5-Cyano-6-[4-(morpholin-4-yl)cyclohex-1-en-1-yl]pyridin-3-yl}-5-methyl-1-[5-(trifluoromethyl)pyridin-2-yl]-1H-pyrazole-4-carboxamide] | 44.1%
31 | 161 nM | Cc1cc(NC(=O)c2cnn(-c3ccc(C(F)(F)F)cn3)c2C)cnc1C1=CCN(C(=O)C(C)(C)C)CC1 [Example K41, N-{6-[1-(2,2-Dimethylpropanoyl)-1,2,3,6-tetrahydropyridin-4-yl]-5-methylpyridin-3-yl}-5-methyl-1-[5-(trifluoromethyl)pyridin-2-yl]-1H-pyrazole-4-carboxamide] | 25.6%
32 | 46.2 nM | Cc1cc(NC(=O)c2cnn(-c3ccc(C(F)(F)F)cn3)c2C)cnc1C1=CCN(S(=O)(=O)C(C)C)CC1 [Example K45, 5-Methyl-N-{5-methyl-6-[1-(propane-2-sulfonyl)-1,2,3,6-tetrahydropyridin-4-yl]pyridin-3-yl}-1-[5-(trifluoromethyl)pyridin-2-yl]-1H-pyrazole-4-carboxamide] | 21.1%
33 | 37.3 nM | Cc1c(C(=O)Nc2ccc(C3(C#N)CCN(S(=O)(=O)C(C)C)CC3)nc2)cnn1-c1ccc(C(F)(F)F)cn1 [Example K51, N-{6-[4-Cyano-1-(propane-2-sulfonyl)piperidin-4-yl]pyridin-3-yl}-5-methyl-1-[5-(trifluoromethyl)pyridin-2-yl]-1H-pyrazole-4-carboxamide] | 43.7%
